Active and inactive are the calls of the source.
Tests used:
[1] = target: T1, Heat shock factor protein 1 (Mus musculus, UniProt P38532); assay: enhancement of HSF1-driven luciferase signal – cell-based, NIH3T3, luminescence, dose retest, confirmation (AID 435004); format: functional;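 note: stress induced by proteasome inhibitor MG132 added 30 min after compound; luciferase reporter driven by HSF1 response element in NIH3T3 cells; actives raise luminescence as potentiators of the MG132 stress response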
T1 sequence (P38532 whole entry): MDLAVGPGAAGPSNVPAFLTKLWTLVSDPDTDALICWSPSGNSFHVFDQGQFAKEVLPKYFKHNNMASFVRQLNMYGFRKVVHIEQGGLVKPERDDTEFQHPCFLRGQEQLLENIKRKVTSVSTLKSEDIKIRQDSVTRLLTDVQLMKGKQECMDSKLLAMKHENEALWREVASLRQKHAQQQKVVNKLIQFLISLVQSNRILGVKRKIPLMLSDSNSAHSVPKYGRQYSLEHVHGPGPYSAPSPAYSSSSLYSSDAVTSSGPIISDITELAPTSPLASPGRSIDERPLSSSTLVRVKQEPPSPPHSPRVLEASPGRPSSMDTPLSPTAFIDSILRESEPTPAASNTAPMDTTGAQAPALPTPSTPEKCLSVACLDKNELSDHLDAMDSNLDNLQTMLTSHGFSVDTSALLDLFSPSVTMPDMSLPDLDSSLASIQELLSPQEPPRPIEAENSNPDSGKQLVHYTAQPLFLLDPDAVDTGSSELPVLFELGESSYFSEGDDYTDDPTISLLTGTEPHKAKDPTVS

[2] = target: DNA damage-inducible transcript 3 protein (Mus musculus, UniProt P35639); format: functional, Cricetulus griseus
Coagulation factor XII = target: T2, Coagulation factor XII (Homo sapiens, UniProt P00748); format: functional;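 note: activated factor XIIa alpha cleaving a fluorogenic AMC peptide substrate; inhibitor potency from loss of enzyme activity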
T2 sequence (P00748 whole entry): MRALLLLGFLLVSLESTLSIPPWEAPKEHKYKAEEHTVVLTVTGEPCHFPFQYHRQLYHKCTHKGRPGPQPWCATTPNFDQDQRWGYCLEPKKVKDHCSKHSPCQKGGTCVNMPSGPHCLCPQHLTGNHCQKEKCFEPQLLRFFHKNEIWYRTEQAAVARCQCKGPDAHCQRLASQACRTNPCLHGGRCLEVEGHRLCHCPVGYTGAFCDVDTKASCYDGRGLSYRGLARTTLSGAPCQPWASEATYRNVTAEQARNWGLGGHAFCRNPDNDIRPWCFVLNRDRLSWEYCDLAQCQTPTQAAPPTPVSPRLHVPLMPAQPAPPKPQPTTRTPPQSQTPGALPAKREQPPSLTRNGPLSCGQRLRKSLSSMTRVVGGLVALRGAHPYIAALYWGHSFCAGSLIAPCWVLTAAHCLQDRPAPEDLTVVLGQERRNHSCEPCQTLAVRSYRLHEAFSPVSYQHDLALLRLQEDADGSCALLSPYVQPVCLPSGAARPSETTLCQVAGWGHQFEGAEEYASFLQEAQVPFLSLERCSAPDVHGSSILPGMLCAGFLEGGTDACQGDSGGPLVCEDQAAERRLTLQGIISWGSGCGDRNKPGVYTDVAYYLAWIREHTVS

Cysteine protease ATG4B = target: T3, Cysteine protease ATG4B (Homo sapiens, UniProt Q9Y4P1); format: functional;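 note: Fluorescence-based dose-response confirmation assay measuring inhibition of ATG4B activity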
T3 sequence (Q9Y4P1 whole entry): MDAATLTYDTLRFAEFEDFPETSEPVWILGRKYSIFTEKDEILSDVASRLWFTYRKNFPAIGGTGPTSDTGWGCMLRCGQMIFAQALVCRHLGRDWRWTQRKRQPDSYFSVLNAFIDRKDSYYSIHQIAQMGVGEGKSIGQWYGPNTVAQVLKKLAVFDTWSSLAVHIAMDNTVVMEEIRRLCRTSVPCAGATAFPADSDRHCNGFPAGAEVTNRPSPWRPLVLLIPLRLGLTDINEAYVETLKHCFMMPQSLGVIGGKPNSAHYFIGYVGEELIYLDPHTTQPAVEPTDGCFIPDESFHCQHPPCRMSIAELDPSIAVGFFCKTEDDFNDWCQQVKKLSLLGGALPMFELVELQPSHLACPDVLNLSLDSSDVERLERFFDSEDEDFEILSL

Phospholipase A2 = Phospholipase A2 (Homo sapiens, UniProt P04054); format: functional;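 note: confirmatory dose-response counterscreen on phospholipase A2, testing hits that came from an ultra-high-throughput screen for ATG4B inhibitors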
[3] = target: T4, Replicative DNA helicase DnaB (Mycobacterium tuberculosis, UniProt P9WMR3); assay: DnaB intein splicing inhibitors, dose response, biochemical, cell-free fluorescence (AID 449749); format: functional
T4 sequence (P9WMR3 whole entry): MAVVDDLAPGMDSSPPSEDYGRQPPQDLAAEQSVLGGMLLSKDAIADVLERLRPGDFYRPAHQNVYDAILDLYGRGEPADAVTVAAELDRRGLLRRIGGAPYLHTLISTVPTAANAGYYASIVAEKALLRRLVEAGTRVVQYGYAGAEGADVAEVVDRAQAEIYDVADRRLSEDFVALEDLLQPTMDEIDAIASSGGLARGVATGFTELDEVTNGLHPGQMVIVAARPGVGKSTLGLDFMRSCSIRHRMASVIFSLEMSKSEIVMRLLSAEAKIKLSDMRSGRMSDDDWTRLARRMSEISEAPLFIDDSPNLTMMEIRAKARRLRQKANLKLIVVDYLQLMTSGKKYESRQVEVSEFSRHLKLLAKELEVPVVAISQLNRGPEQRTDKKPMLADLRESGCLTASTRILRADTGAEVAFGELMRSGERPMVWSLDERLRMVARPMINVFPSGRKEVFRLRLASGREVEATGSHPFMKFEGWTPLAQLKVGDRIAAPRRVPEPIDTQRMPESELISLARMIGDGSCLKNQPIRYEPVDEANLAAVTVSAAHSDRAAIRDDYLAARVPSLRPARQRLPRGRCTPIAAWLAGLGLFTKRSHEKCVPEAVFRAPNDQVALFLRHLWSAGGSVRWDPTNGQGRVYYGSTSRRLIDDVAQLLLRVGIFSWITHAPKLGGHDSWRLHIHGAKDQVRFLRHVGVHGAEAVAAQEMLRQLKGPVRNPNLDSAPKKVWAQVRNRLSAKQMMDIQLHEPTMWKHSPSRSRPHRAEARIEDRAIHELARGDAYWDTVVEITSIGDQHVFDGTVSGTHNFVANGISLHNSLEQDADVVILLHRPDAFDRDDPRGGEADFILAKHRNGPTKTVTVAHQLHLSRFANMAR

[4] = target: T5, Probable nicotinate-nucleotide adenylyltransferase (Staphylococcus aureus (strain N315), UniProt P65502); format: functional, Staphylococcus aureus subsp. aureus N315;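 for IC50 Mean: confirmatory dose-response retesting of NadD inhibitor hits first found in an ultra-high-throughput screen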
Protein RecA = target: T6, Protein RecA (Mycobacterium tuberculosis, UniProt P9WHJ3); assay: Fluorescence Cell-Free Homogeneous Dose Retest to Identify Inhibitors of RecA-Intein Splicing Activity. [Related pubchem assays (depositor defined):AID2097, AID2223, AID489010, AID492950]; format: functional
T6 sequence (P9WHJ3 whole entry): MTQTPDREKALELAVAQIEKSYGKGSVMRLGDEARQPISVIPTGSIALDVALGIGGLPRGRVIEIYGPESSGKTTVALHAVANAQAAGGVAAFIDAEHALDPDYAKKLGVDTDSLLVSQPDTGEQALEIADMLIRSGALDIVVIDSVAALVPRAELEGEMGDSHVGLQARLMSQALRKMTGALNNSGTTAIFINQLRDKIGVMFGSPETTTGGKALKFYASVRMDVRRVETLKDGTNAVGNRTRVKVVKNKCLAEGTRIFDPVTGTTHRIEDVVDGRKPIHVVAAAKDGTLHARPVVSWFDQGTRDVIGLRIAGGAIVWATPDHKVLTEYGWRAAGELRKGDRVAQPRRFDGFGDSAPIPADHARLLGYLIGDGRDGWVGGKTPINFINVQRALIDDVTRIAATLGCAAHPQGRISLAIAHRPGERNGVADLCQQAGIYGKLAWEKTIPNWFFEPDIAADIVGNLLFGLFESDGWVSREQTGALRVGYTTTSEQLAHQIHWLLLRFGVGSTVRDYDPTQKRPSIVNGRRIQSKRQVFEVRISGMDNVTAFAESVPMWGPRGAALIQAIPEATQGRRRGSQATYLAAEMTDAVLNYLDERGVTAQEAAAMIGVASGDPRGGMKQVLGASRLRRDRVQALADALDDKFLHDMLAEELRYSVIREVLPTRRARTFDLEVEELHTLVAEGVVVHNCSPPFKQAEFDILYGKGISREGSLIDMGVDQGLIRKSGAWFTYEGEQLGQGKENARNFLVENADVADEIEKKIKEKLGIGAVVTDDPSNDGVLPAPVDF

[5] = target: T5, Probable nicotinate-nucleotide adenylyltransferase; format: functional, Staphylococcus aureus subsp. aureus N315; conditions: read-out: IC50_Mean
[6] = viability of HCT116 lacking mutant beta-catenin – cell-based, human colon tumor, dose response (AID 1045); format: functional;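 note: HCT116 colon tumor cells with beta catenin knocked out; cells exposed to compound for 60 hours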
INS1 = assay: INS-1E survival protection against cytokine death – cell-based, luminescence, retest, dose response (AID 449756); format: functional; conditions: Rattus norvegicus;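 note: cell death triggered by IL-1 beta plus TNF-alpha plus IFN-gamma mixture; protective hits raise ATP signal compared with cytokine alone wells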
[7] = viability of PTEN-deleted HCT116 cells – cell-based, HCT116 PTEN knockout, dose response (AID 1047); format: functional;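 note: HCT116 colon tumor cells with PTEN knocked out; cells exposed to compound for 60 hours before readout; potency for loss of cell viability measured by luminescence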
BJ [8] = assay: cells; format: functional, cell-based; conditions: Homo sapiens
[9] = NIH3T3 cell viability loss – ATP luminescence, mouse fibroblasts, counter-screen, dose response (AID 2010); format: functional, cell-based;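 note: cells exposed to compound for about 90 hours before reading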
[10] = target: T7, Tyrosyl-DNA phosphodiesterase 2 (Homo sapiens, UniProt O95551); assay: potency against TDP2 phosphodiesterase activity – biochemical, epi absorbance, IC50, dose response (AID 743297)
T7 sequence (O95551 whole entry): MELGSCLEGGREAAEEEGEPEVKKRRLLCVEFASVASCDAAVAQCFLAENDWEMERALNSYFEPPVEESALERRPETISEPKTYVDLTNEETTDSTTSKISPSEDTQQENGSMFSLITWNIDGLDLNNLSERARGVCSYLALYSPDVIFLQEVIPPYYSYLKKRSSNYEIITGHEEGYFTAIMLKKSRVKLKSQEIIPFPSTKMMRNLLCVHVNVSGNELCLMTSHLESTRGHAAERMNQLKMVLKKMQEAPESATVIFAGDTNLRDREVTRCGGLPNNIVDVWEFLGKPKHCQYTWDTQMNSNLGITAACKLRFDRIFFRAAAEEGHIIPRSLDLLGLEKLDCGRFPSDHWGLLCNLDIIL

[11] = HepG2 cell cytotoxicity, dose response, cytotoxicity control for non-replicating M. tuberculosis project (AID 489018); format: functional; conditions: Mycobacterium tuberculosis
[12] = Trypanosoma cruzi growth suppression in host cells – NIH3T3 host cells, beta-gal luminescence, confirmation (AID 2044); format: functional, cell-based;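 note: intracellular parasites grown in NIH/3T3 mouse fibroblasts as host cells; luminescent beta-galactosidase reporter signal from transgenic T. cruzi replicating inside host cells; inhibitors lower the luminescence signal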
cells = format: functional
[13] = Vero E6 cell cytotoxicity, dose response, cytotoxicity control for non-replicating M. tuberculosis project, secondary assay (AID 492998); format: functional, VeroE6; conditions: Vero C1008
BJ [14] = assay: BJ-TERT fibroblast viability loss – cell-based, RAS-independent, luminescence, dose response (AID 1933); format: functional; conditions: Homo sapiens
BJ [15] = assay: BJ-TERT-LT-ST fibroblast viability loss – cell-based, RAS-independent, luminescence, dose response (AID 1935); format: functional; conditions: Homo sapiens;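 note: BJ fibroblasts immortalized with TERT plus LT and ST oncogenes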
[16] = THP-1 cell cytotoxicity, dose response, cytotoxicity control for non-replicating M. tuberculosis project (AID 489025); format: functional
[17] = DRD fibroblast viability loss – cell-based, non-viral oncogenic, luminescence, dose response (AID 1934); format: functional; conditions: Homo sapiens
[18] = target: T8, Mannose-6-phosphate isomerase (Homo sapiens, UniProt P34949); assay: MPI inhibition at elevated mannose 6-phosphate – biochemical, fluorescence intensity, high mannose 6-phosphate, primary screen (AID 1220)
T8 sequence (P34949 whole entry): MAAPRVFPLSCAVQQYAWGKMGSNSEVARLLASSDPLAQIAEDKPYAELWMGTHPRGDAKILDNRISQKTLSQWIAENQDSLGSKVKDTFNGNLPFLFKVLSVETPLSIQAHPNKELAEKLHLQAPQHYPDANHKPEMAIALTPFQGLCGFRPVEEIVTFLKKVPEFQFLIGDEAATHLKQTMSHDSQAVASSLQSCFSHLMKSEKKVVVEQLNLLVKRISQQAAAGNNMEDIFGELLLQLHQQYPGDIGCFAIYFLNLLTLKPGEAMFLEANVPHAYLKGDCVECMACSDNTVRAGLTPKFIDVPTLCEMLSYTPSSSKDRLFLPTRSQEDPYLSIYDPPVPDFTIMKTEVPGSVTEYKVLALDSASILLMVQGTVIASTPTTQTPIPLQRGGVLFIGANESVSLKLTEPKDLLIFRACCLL

[19] = microbe, parasite or virus in culture; format: functional; conditions: Mycobacterium tuberculosis

T5 sequence (P65502 whole entry): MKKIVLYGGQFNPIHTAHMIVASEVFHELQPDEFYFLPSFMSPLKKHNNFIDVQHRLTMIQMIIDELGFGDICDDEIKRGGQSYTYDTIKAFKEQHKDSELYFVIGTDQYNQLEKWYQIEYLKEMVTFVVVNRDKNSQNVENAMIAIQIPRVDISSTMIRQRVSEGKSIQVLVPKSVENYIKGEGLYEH
DNA damage-inducible transcript 3 protein, sequence (P35639 whole entry): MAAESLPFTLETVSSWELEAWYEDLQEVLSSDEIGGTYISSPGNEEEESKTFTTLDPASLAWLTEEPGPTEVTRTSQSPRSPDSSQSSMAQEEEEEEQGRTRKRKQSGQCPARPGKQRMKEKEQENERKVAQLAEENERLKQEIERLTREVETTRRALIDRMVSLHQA
Phospholipase A2, sequence (P04054 whole entry): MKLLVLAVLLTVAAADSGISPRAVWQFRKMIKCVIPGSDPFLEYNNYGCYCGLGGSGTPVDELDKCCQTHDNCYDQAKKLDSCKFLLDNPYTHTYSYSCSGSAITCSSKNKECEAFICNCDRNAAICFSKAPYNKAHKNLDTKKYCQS

For CCn1cc([N+](=O)[O-])c(C(=O)N2N=C(c3ccc(Cl)c(Cl)c3)CC2c2ccccc2O)n1 (stereo unspecified), the EC50 [1] was > 260 µM (inactive) and the “Absolute IC50 (CHOP)” value [2] was 10 µM.

With CCC1SC(CC)C(=O)N(CC(=O)NC2CCCCC2)C1=O (stereo unspecified) the IC50 (Coagulation factor XII) was > 50 µM (inactive).

For CN(C)c1ccc(-c2nnn(Cc3ccccc3Br)n2)cc1, the IC50 (Cysteine protease ATG4B) was 13.2 µM (active) and the IC50 (Phospholipase A2) was 7.95 µM (active).

With CC(=O)c1ccc(N2CCN(S(=O)(=O)c3cccc(S(=O)(=O)N4CCOCC4)c3)CC2)cc1 the IC50 (Coagulation factor XII) was > 50 µM (inactive).

With CCOc1ccc(N2C(=O)/C(=C\c3ccc(O)c(OC)c3)S(=O)(=O)C2c2cccc([N+](=O)[O-])c2)cc1 (stereo unspecified) the AC50 [3] was 2.96 µM (active), the IC50 [4] was 9.57 µM (active) and the EC50 [1] was 8.52 µM (active). For the same compound, the EC50 (Protein RecA) was 3.74 µM (active), the “Absolute IC50 (CHOP)” value [2] was 10 µM and the IC50 [5] was 35.9 µM (active).

For O=C1OC(Nc2ncccn2)c2ccccc21 (stereo unspecified), the IC50 (Coagulation factor XII) was > 50 µM (inactive).

With CCCNC1=C(N(C(C)=O)c2cccc(F)c2)C(=O)c2ccccc2C1=O the EC50 [6] was 0.979 µM (active), the AC50 (INS1) was 1.03 µM (active) and the AC50 [3] was 9.44 µM (active). For the same compound, the EC50 [7] was 1.14 µM (active), the EC50 (BJ [8]) was 5.96 µM (active) and the EC50 [9] was 10.3 µM (active). The IC50 [10] was > 4.75 µM (active), the CC50 [11] was 8.6 µM (active) and the EC50 [12] was 1.23 µM (active). For the same compound, the IC50 (cells) was 20.8 µM (active), the CC50 [13] was 17.7 µM (active) and the EC50 (Protein RecA) was 2.06 µM (active). The EC50 (BJ [14]) was 6.47 µM (inconclusive), the EC50 (BJ [15]) was 6.6 µM (active) and the CC50 [16] was 1.47 µM (active). For the same compound, the EC50 [17] was 6.47 µM (active), the IC50 [18] was > 50 µM (not active) and the CC50 [19] was 31 µM (active).

— ChEMBL document CHEMBL1201862, “PubChem BioAssay data set” (2004)
